In assay [1] the test system is Staphylococcus epidermidis. Briefly: Antibacterial activity against Staphylococcus albus ATCC 8032 by microplate assay method. It is filed as functional, organism-based.
Assay [2] has as its system Staphylococcus aureus. The experiment in a line: Antibacterial activity against Staphylococcus aureus ATCC 25923 by microplate assay method. It is filed as functional, organism-based.
The subject of assay [3] is Staphylococcus aureus. The experiment in a line: Antibacterial activity against methicillin-resistant Staphylococcus aureus ATCC 33591 by microplate assay method. In kind it is functional, organism-based.
Assay [4] deals with Vibrio alginolyticus. Briefly: Antibacterial activity against Vibrio alginolyticus ATCC 17802 by microplate assay method. In kind it is functional, organism-based.
The subject of assay [5] is Vibrio parahaemolyticus. The experiment in a line: Antibacterial activity against Vibrio parahaemolyticus ATCC 17749 by microplate assay method. It is filed as functional, organism-based.
Assay [6] is described as follows: Inhibition of Saccharomyces cerevisiae alpha-glucosidase using PNP-G as substrate incubated for 20 mins followed by substrate addition.

Active and inactive are the calls of the source. The calls are words filed in the database; no cut-off is given here.

Data on 16 compounds can be found in ChEMBL document CHEMBL4387791, “Bioactive Polyketide Derivatives from the Mangrove-Derived Fungus Daldinia eschscholtzii HJ004” (J Nat Prod, 2019).

In general, IC50 refers to the concentration needed to halve the response being measured. Low values mean higher potency, high ones lower potency. Regarding `C/C(=C\CO)[C@@H]1OC(=O)C(C)(C)[C@@H](O)[C@H]1C`, the result in assay [1], in assay [2], in assay [3], in assay [4] and in assay [5] was inactive. This compound registered an IC50 in assay [6] of 20 µM.

Consider `CCCc1cc(=O)c2c(OC)cccc2o1`, for which the result in assay [1], in assay [2], in assay [3], in assay [4] and in assay [5] was inactive. The compound also had an IC50 in assay [6] of 84 µM.

Turning to `COc1cc(O)cc2oc(C)c(C)c(=O)c12`, the result in assay [1], in assay [2], in assay [3], in assay [4] and in assay [5] was inactive. The compound also showed an IC50 in assay [6] of 13 µM.

For the compound `CCc1c(OC)cc2c(c1O)C(=O)[C@H](C)[C@@H](C)[C@H]2O`, the outcome in assay [1], in assay [2], in assay [3], in assay [4] and in assay [5] was inactive. For the same compound, the IC50 in assay [6] was found to be 155 µM.

Consider `O=C1CC[C@H](O)c2cccc(O)c21`, for which the outcome in assay [1], in assay [2], in assay [3], in assay [4] and in assay [5] was inactive. Besides, in assay [6], inhibition was half-maximal at 70 µM (IC50).

Turning to `CCc1ccc2c(c1O)C(=O)[C@](O)(CC)[C@@H](O)C2`, the outcome in assay [1], in assay [2], in assay [3], in assay [4] and in assay [5] was inactive. Also, the IC50 in assay [6] came to 38 µM.

Regarding `CC(=O)OC/C=C(\C)[C@@H]1OC(=O)C(C)(C)[C@@H](O)[C@H]1C`, the result in assay [1], in assay [2], in assay [3], in assay [4] and in assay [5] was inactive. Moreover, in assay [6], the IC50 came out at 240 µM.

Regarding `Cc1cc2c(c(O)c1C)C(=O)C[C@@H](O)[C@H]2O` (relative stereo), the outcome in assay [1], in assay [2], in assay [3], in assay [4] and in assay [5] was inactive. The IC50 in assay [6] was 21 µM.

Turning to `CCc1c(OC)cc2c(=O)c(C)c(C)oc2c1O`, the result in assay [1], in assay [2], in assay [3], in assay [4] and in assay [5] was inactive. The compound further showed a concentration for half-maximal inhibition (IC50) in assay [6] of 100 µM.

In assay [6], `C[C@H]1O[C@H](O[C@H]2[C@H](O)[C@@H](O)[C@@H](O[C@H]3[C@H](O)[C@@H](O)C(O)O[C@@H]3CO)O[C@@H]2CO)[C@H](O)[C@@H](O)[C@@H]1N[C@H]1C=C(CO)[C@@H](O)[C@H](O)[C@H]1O` (stereo partly specified) [ACARBOSE] showed an IC50 of 3 µM.

In the case of `COc1cccc2c1C(=O)CC(C)O2` (stereo unspecified), the result in assay [1], in assay [2], in assay [3], in assay [4] and in assay [5] was inactive. This compound came in with an IC50 in assay [6] of 15 µM.

Turning to `COc1cccc2c1[C@H](O)CCC2=O`, the result in assay [1], in assay [2], in assay [3], in assay [4] and in assay [5] was inactive. Also, in assay [6], it took 90 µM to reach half-maximal inhibition (IC50).

With `CCc1c(OC)cc2c(c1O)C(=O)[C@H](C)[C@@H](C)[C@@H]2O`, the result in assay [1], in assay [2], in assay [3], in assay [4] and in assay [5] was inactive. In assay [6], this compound showed an IC50 of 35 µM.

Regarding `CCc1c(O)cc2c(=O)oc(C)c(C)c(=O)c2c1OC`, the result in assay [1], in assay [2], in assay [3], in assay [4] and in assay [5] was inactive. For the same compound, the midpoint of inhibition in assay [6], the IC50, lay at 54 µM.

Take `C/C=C(\C)[C@@H]1OC(=O)C(C)(C)[C@@H](O)[C@H]1C`: the result in assay [1], in assay [2], in assay [3], in assay [4] and in assay [5] was inactive. The concentration for half-maximal inhibition (IC50) in assay [6] stood at 16 µM.

For the compound `C/C=C(\C)[C@@H]1OC(=O)C(C)(C)[C@H](O)[C@H]1C`, the result in assay [1], in assay [2], in assay [3], in assay [4] and in assay [5] was inactive. For the same compound, the IC50 in assay [6] came to 31 µM.
